Laboratory results reported in US20090123474A1, “COMBINATION OF ANGIOPOIETIN-2 ANTAGONIST AND OF VEGF-A, KDR AND/OR FLTL ANTAGONIST FOR TREATING CANCER” (ASTRAZENECA AB, priority 2005, published 2009).

How the values were obtained:
Format in all cases: in vivo
[1] = system: A431 human tumour xenografts; experiment: A431 xenograft efficacy study (Study A); settings: 3.19.3 10 mg/kg 2×wk i.p., VTKI 3 mg/kg/day p.o.
Procedure: (§1) The anti-tumor activity of monoclonal antibody 3.19.3 in combination with the VTKI 4-(4-fluoro-2-methylindol-5-yloxy)-6-methoxy-7-(3-piperidinopropoxy)quinazoline was evaluated in a xenograft model of human skin epidermoid carcinoma (Study A) and in a model of colorectal cancer (Study B) by using the A431 and Colo205 cell lines respectively.
(§2) A431 and Colo205 cells were cultured in flasks as routine until the cells reached sub-confluence. Immunodeficient 6-8 week old female mice (Ncr/nu/nu) were used. The cells were harvested and suspended in Matrigel. A cell suspension containing 1 to 5×10^6 cells was injected subcutaneously into the flank of the mice. The mice were randomized into different groups, each containing 10-15 mice. When the tumour volume reached 200 mm^3, the mice were randomized in each groups and the treatments were initiated. mAb 3.19.3 10 mg/kg in saline was injected intraperitoneally, twice per week for 2 weeks. 4-(4-fluoro-2-methylindol-5-yloxy)-6-methoxy-7-(3-piperidinopropoxy)quinazoline was treated peroral daily at doses ranging from 1.5 to 6 mg/kg in water containing 1% Tween80. The dimensions of each tumor were measured twice per week. The volume of the tumor was calculated as: Volume=Length×(Width)^2×0.5 (cm^3).

[2] = system: human Colo205 colon tumour xenografts; experiment: Colo205 xenograft efficacy study (Study B); settings: 3.19.3 10 mg/kg 2×wk i.p., VTKI 6 mg/kg/day p.o.
Procedure: as §1, §2

[3] = system: human HT29 colon tumour xenografts; experiment: HT29 xenograft efficacy study; settings: AZD2171 1.5 mg/kg/day p.o. d 0-27, 3.19.3 10 mg/kg i.p. day 0, 3, 7, 10, 14, 17, 21 and 24
Procedure: The efficacy of mAb 3.19.3 in combination with AZD2171 was evaluated in human HT29 xenografts. Briefly, 5×10^6 HT29 tumour cells in 0.1 ml of serum free Roswell Park Memorial Institute (RPMI)-1640 medium were injected subcutaneously into the flanks of 60 athymic (nu/nu genotype) mice. When tumours reached a volume of 200 to 400 mm^3 (9-10 days), mice were randomized into groups (8 per group) and treatment started (day 0).
The control group (Group 1) received a daily oral (p.o.) administration of vehicle only for 28 consecutive days (day 0-27). Group 2 treatment consisted of a daily p.o. administration of AZD2171 alone at 1.5 mg/kg/administration for 28 consecutive days (day 0-27). AZD2171 was prepared as a suspension in 1% polysorbate 80 (i.e. a 1% (v/v) solution of polyoxyethylene (20) sorbitan mono-oleate in deionised water). […]
Tumour volumes (mm^3) were assessed at least twice weekly by bilateral Vernier caliper measurement and, taking length to be the longest diameter across the tumor and width the corresponding perpendicular, calculated using the formula (π/6)×(length×width)×√ (length×width). Growth inhibition from the start of treatment was assessed by comparison of the differences in tumor volume between control and treated groups. […] For all mice, the tumours were excised and weights recorded upon termination of the study.

[4] = system: human LoVo colon tumour xenografts; settings: 3.19.3 10 mg/kg 2×wk i.p., Zactima 50 mg/kg/day p.o.
Procedure: The anti-tumor activity of monoclonal antibody 3.19.3 was evaluated in the LoVo xenograft model of colorectal cancer. Briefly, LoVo cells were cultured in flasks as routine until the cells reached sub-confluence. Immunodeficient 8 week old male NCr nude mice were used. Cell suspensions containing 3×10^6 cells were injected subcutaneously into the right flank of the mice, and after the tumour volume reached 200 mm^3, the mice were randomized in groups and the treatments were initiated. mAb 3.19.3 10 mg/kg in saline was injected intraperitoneally, twice per week for 2 weeks. Zactima™ was treated peroral daily at doses ranging from 25 to 50 mg/kg in water containing 1% Tween80. The dimensions of each tumor were measured twice per week. The volume of the tumor was calculated as: Volume=Length×(Width)^2×0.5 (cm^3).

## COc1cc2c(Oc3ccc4[nH]c(C)cc4c3F)ncnc2cc1OCCCN1CCCCC1 [4-(4-fluoro-2-methylindol-5-yloxy)-6-methoxy-7-(3-piperidinopropoxy)quinazoline, reference compound]
[1]
  % tumor growth inhibition: 69%
[2]
  % inhibition: 57%

## COc1cc2c(Oc3ccc4[nH]c(C)cc4c3F)ncnc2cc1OCCCN1CCCC1 [AZD2171, reference compound]
[3]
  Inhibition of Control Tumour Growth Day 28: 55%

## COc1cc2c(Nc3ccc(Br)cc3F)ncnc2cc1OCC1CCN(C)CC1 [Zactima™, reference compound]
[4]
  tumour inhibition: 46%
